Earlier results, collected in US4496540A, “Therapeutic compounds” (Biomeasure, Inc., priority 1982, dated 1985).

Tested on: enkephalinase

## O=C(O)CNC(=O)C(CS)Cc1ccccc1 (racemic) [Thiorphan, (DL-3-mercapto-2-benzylpropanoyl) glycine]
In vitro, Roques et al. (1980)
  protection of the enkephalins from the action of enkephalinase in vitro: protects the enkephalins from the action of enkephalinase in vitro in nanomolar concentration
Known inhibitors, Llorens et al. (1981)
  inhibition of enkephalinase: inhibited
